Each structure is given as a SMILES string. Like-named read-outs stand apart in the source and are kept apart here. Where only a bound is given, the exact number is not on record here.

Here are results for 8 molecules from patent publication US4565813A, “1,4-Thiazine derivatives” (Zenyaku Kogyo Kabushiki Kaisha, priority 1983, dated 1986).

One data set concerns isolated atria. Briefly: Contractile force of isolated atria. The conditions noted are these: Cavia porcellus; 50.0 μg/ml, isolated guinea pig atria; read-out: Maximum Contractile Force (increase). Details: species or system guinea pig (male Hartley). The method, then: The pharmacological effects of the compound of the following general formula I will now be described: [drawing 9] wherein R1, R2 and R3 are as defined above. (1) The contractile force of isolated atria was tested according to the method of L. J. Macleod described in Pharmacological Experiments on Intact Preparations, pages 112-115 (1970). A 7-weeks-old male Hartley guinea pig (having a body weight of about 350 g) was killed by a blow on the head. The chest was opened and the heart was removed as quickly as possible and placed in Ringer-Locke solution (prepared by adding distilled water to 9.0 g of sodium chloride, 0.25 g of potassium chloride, 0.15 g of calcium chloride and 1.0 g of glucose so that the total amount was 1,000 ml) at room temperature. All other tissues was cut away until nothing was left except the atria. Threads were tied to each tip of the atria and the preparation thus obtained was mounted in Ringer-Locke solution at 30±1° C., through which a brisk stream of pure oxygen was bubbled. One thread was attached to a fixed pin in the Magnus' bath and the other to a force-displacement transducer connected to an electrical amplifier and recorder. When the rate and amplitude became constant, recording was started. After 1 minute, the solution of sample compound was injected and recording was conducted for 2 minutes. After completion of recording, the isolated atria was washed with Ringer-Locke solution until the rate and amplitude became constant. After 15 minutes, recording was started again.

The test system of a further data set is coronary blood flow. Briefly: Coronary-vasodilating action (Langendorff's method). The conditions noted are these: Cavia porcellus; for activation at 0.1 mg: dose 100 μg. Details: species or system guinea pig (male Hartley). The method, then: (3) The coronary-vasodilating effect was tested according to the method disclosed in Basic Lectures of Medicine Development, Volume V, Pharmacological Test Methods, Part 2, page 537 (1971). A 7-weeks-old male Hartley guinea pig (having a body weight of about 350 g) was used. And the measurement was carried out under a perfusion pressure of about 60 mmHg according to the Langendorff's method by using as a nutrient solution a Krebs' solution. The incubation temperature was 37° C.

The subject of data set [1] is systolic blood pressure and heart rate, rats. Briefly: Effect on systolic blood pressure and heart rate (indirect tail-cuff method). The format is in vivo, rat (male Wistar). The conditions noted are these: 25 mg/kg p.o. The method, then:
Male Wister rats (having a body weight of about 350 g) were used. Systolic blood pressure and heart rate were measured in rats by indirect tail-cuff method, using a programmed electrosphymomanometer.

In data set [2] the test system is isolated papillary muscles. Briefly: Contractile force of isolated papillary muscles. Further details: species or system cat (female). As to conditions: Felis catus, isolated cat papillary muscles, read-out: Maximum Contractile Force (increase); for activation at 10 µg/mL: 1.0 × 10^-5 g/ml. The method, then: (2) The contractile force of isolated papillary muscles was tested according to the method described in Basic Lectures of Medicine Development, Volume V, Pharmacological Test Methods, Part 2, page 535 (1971). A female cat (having a body weight of about 3.5 kg) was anaesthetized with ether-chloroform gas and exsanguinated. The chest of each cat was opened and the heart was excised, rinsed with Krebs-Henseleitsolution (prepared by adding distilled water to 6.92 g of sodium chloride, 0.35 g of calcium chloride, 0.29 g of magnesium sulfate, 0.16 g of mono-basic potassium phosphate, 2.1 g of sodium bicarbonate and 1.8 g of glucose so that the total amount was 1 l) and one or more small, thin papillary muscles from the right ventricule were dissected. Then papillary muscles were mounted in 20 ml Magnus' bath containing Krebs-Henseleit solution bubbled with oxygen gas at a temperature of 30±1° C. The papillary muscles were stimulated electrically at the rate of 2 beat/sec. and a voltage of 20% above threshold. The developed tension of the muscles was recorded isometrically on recorder by the use of force displacement tansducers.

The subject of data set [3] is ventricular muscle and heart rate, anaesthetized dog. Briefly: Contractile force of ventricular muscle and heart rate of anaesthetized dog. The format is in vivo, dog (male). The conditions noted are these: for Heart Rate (up): infused i.v. 320 μg/kg/minute, anaesthetized dog; for Contractile Force of Ventricular Muscles (increase): infused i.v. (left femoral vein) 320 μg/kg/minute until maximum inotropic effect. The method, then: (4) The contractile force of ventricular muscle and heart rate in anaesthetized dog was tested according to the method described in Basic Lectures of Medicine Development, Volume V, Pharmacological Test Methods, Part 2, page 544 (1971). A male dog (having a body weight of about 12-14 kg) was anaesthetized with 40 mg/kg body weight of pentobarbital sodium (i.p.). Supplemental dose of pentobarbital was administered whenever necessary. An intra-tracheal cannula was inserted and ventilation was carried out by means of Harvard constant-volume, positive pressure pump using room air. The chest was opened by a midline incision and the heart was suspended in the pericardial cradle. The contratile force of the myocardium was measured by means of Walton-Brodie type strain-gauge arch sutured onto the left ventricle. Systemic blood pressure was measured from the left femoral artery by a pressure transducer and heart rate was calculated by blood pressure pulses. Sample compounds were infused into the left femoral vein at a rate of 320 μg/kg/minute until a maximum inotropic effect is obtained.

The subject of a further data set is platelet aggregation. Briefly: Inhibition of platelet aggregation. The format is cell-based, rat (male Wistar). As to conditions: Rattus norvegicus, 83.0 μg/ml. The method, then: (5) The inhibition of platelet aggregation was determined according to the method of Yamazaki [Hiroo Yamazaki, Clinical Inspections, 22, (9) 935-943 (1978)]. Eleven-weeks-old male Wistar rats (having a body weight of about 350 g) were used. Blood was drawn by venupuncture in the […]. Nine fold volume of blood was drawn, with mixing, into a syringe containing one volume of 3.1% (W/V) sodium citrate. Platelet-rich-plasma (PRP) was collected as the supernatant after centrifuging the citrated blood at 1,000 rpm for 10 min. Platelet-poor-plasma (PPP) was the resulting supernatant after the residual citrated blood was additionally centrifuged at 3,000 rpm for 10 min. Each 210 μl aliquot of PPP and PRP was placed in cuvette and stirred at 37° C. in aggregometer. The aggregation reactions were determined by changes in light transmissions. A 20 μl sample was injected into PRP in the aggregometer, and 1-2 min. later, a 20 μl aggregation stimulant was injected. Aggregation pattern and maximal aggregation rate of each sample were compared with those of control. 100 μM of ADP (adenosine-5'-diphosphate or 100 μg/ml of collagen was used as the aggregation stimulant. The obtained results are shown in Table 5.

For data set [4], the system named is smooth muscle of bronchus. Briefly: Bronchodilation effect (tracheal ring chain). Further details: species or system guinea pig (male Hartley). The method, then:
(7) The bronchodilation effect was tested according to the method of L. J. Macleod in Pharmacological Experiments on Intact Preparations, Pages 100-103 (1970). A 7-weeks-old, male Hartley guinea pig (having a body weight of about 350 g) was killed by a blow on the head and cutting the throat. The trachea was dissected out and transferred into Krebs' solution. The excessive tissue was removed and the trachea was cut transversely with great care not to damage smooth muscle, to form at least 5 tracheal rings which are tied together so as to form chain. One thread was attached to a fixed pin in the Magnus' bath and the other, to a force-displacement transducer connected to an electrical amplifier and recorder. Experiments with this preparation were performed at 37±1° C. in Krebs' solution through which O2 plus 5% CO2 was bubbled. The sample compound was injected and the recording was conducted for 4 minutes. After completion of the recording, the sample was washed out with Krebs' solution until the base line became stable. After 30 to 50 minutes, the recording was started again.

Data set [5] is described as follows: Acute toxicity (Litchfield-Wilcoxon method). As to conditions: mouse, in vivo, iv; tail vein, 6-weeks-old male ddY mice. The method, then:
The acute toxicity of the compound of the general formula I was determined according to the Litchfield-Wilcoxon method [J. Pharm. Exp. Ther., 96, 99 (1949)] using 6-weeks-old male ddY mice (having a body weight of 19 to 24 g) while administrating the sample compound in the tail vein.

The mark [6] stands for this setting: 0.5 h, dose 500 μg, 30 minutes, read-out: Coronary Blood Flow Increase Ratio, 30 Minutes after Administration.
The mark [7] stands for this setting: dose 500 μg, read-out: Coronary Blood Flow Increase Ratio, Maximum Increase Ratio of Sample.
Setting [8] is: read-out: Coronary Blood Flow Increase Ratio, Maximum Increase Ratio of Sample.

With `CC1=C(C2CCNCC2)SCC(=O)N1` [By-product, 5-methyl-6-(4-piperidinyl)-2H-1,4-thiazin-3(4H)-one], the activation at 50 µg/mL with isolated atria was 5%. Also, the activation at 0.5 mg in the data set with coronary blood flow (setting [6]) was 5%; in the data set on coronary blood flow (setting [7]), 12%.

For `Cc1[nH]c(=O)c(C#N)cc1-c1ccncc1` [Milrinone], in data set [1], the “Blood Pressure (systolic), direction of change” value (from here on “Blood Pressure … of change”) is “decrease” and the “Heart Rate (up)” value was 51%.

`CC1=C(c2ccncc2)SCC(=O)N1C` [R1 = CH3, R2 = CH3, R3 = H, 4,5-dimethyl-6-(4-pyridinyl)-2H-1,4-thiazin-3-one]: the activation at 50 µg/mL with isolated atria is 18%. Also, the activation at 0.1 mg amounted to 8% in the data set with coronary blood flow (0.5 h, 30 minutes, read-out: Coronary Blood Flow Increase Ratio, 30 Minutes after Administration) and 28% with coronary blood flow (setting [8]).

Broadly, the LD50 is the dose expected to kill half of the subjects tested. Read a high LD50 as a less toxic substance. Turning to `CC1=C(c2ccncc2)SCC(=O)N1` [R1 = H, R2 = CH3, R3 = H, 5-methyl-6-(4-pyridinyl)-2H-1,4-thiazin-3(4H)-one], the activation at 50 µg/mL in the data set with isolated atria was found to be 40%. In addition, the activation at 10 µg/mL in data set [2] came to 61%. Further, in data set [2] (1.0 × 10^-6 g/ml), the activation at 1 µg/mL worked out at 27%. For the same molecule, the activation at 0.5 mg came to 10% in the data set with coronary blood flow (setting [6]) and 71% with coronary blood flow (setting [7]). The entries for the “Heart Rate (up)” value in data set [3] and in data set [1] were 30% and 19%, respectively. Moreover, the “Contractile Force of Ventricular Muscles (increase)” value in data set [3] stood at 170%. In addition, the inhibition at 83 µg/mL in the data set on platelet aggregation (stimulant 100 μM ADP, read-out: Aggregation Inhibition Ratio, ADP) came to 80%; in the data set on platelet aggregation (stimulant 100 μg/ml collagen, read-out: Aggregation Inhibition Ratio, Collagen), 100%. For the same molecule, the “Blood Pressure … of change” value in data set [1] is given as “decrease”. In addition, in data set [4], the “Influence of Smooth Muscle of Bronchus (relaxed by)” value was ≥ 0.13 m/m. Moreover, the LD50 in data set [5] is 165 to 200 mg/kg.

For the molecule `O=NO` [Sodium nitrite, reference compound], the activation at 0.5 mg was found to be 5% with coronary blood flow (0.5 h, read-out: Coronary Blood Flow Increase Ratio, 30 Minutes after Administration) and 20% in the data set with coronary blood flow (setting [8]).

Turning to `Cn1c(=O)c2[nH]cnc2n(C)c1=O` [Theophylline, reference compound], in the data set on coronary blood flow (setting [6]), the activation at 0.5 mg is -10%. Also, the activation at 0.5 mg in the data set with coronary blood flow (setting [7]) came to 32%. For the same molecule, in data set [1], the “Blood Pressure … of change” value is reported as “increase” and the “Heart Rate (up)” value came to 29%.

Regarding `Nc1cc(-c2ccncc2)c[nH]c1=O` [amrinone, reference compound], the activation at 100 µg/mL in data set [2] (1.0 × 10^-4 g/ml) was determined as 77%. In addition, the activation at 10 µg/mL in data set [2] was 17%. In data set [3], the “Heart Rate (up)” value was 25% and the “Contractile Force of Ventricular Muscles (increase)” value is reported as 25%.

Turning to `CC(C)NCC(O)c1ccc(O)c(O)c1` (centres unmarked) [isoproterenol, reference compound], in the data set with isolated atria, the activation at 50 µg/mL was 40%.
